Assay results: a melting point compilation (Tetko et al.; mined from patent text by program, amines drawn as free bases though some values may be those of a salt)

Structure (SMILES)	melting point [°C]
CCCN1CCC(c2ccc(C(=O)NC3(C(=O)NCC#N)CCCCC3)cc2)CC1	198 to 200
CCNc1ccccc1Nc1c(C(=O)O)cnc2c1cnn2CC	224 to 226
Nc1ccc(NC(=O)N2CCc3cc(S(=O)(=O)N4CC(c5ccccc5)NC4=O)ccc32)cc1 (stereo not given)	158 to 160
Nc1cccc(Oc2cnc3cc(Cl)ccc3n2)c1	119 to 120
O=C(O)COCc1nn(-c2ccc(Cl)cc2)c2c1CCC2	122 to 123
Cc1ncccc1OCC1(c2onc(-c3ccc(O)cc3)c2-c2ccccc2)CC1	194 to 195
CN1CCN(c2ccc(Cl)c(C3(C)C(=O)Nc4ccc(Cl)cc43)c2)CC1 (stereo not given)	155
CC(C)(O)c1ccc(CNC(=O)c2cccnc2Oc2ccc3nonc3c2)cc1	149 to 151
CN(C)CCOc1ccccc1-c1cc(NC(N)=O)c(C(N)=O)s1	180
COC(=O)C1=C(NC(=O)Nc2cc(C(=O)OC(C)C)c(Cl)cc2F)CCS1	161 to 163
COC(=O)c1ccc(OCCCBr)cc1NC(=O)C=Cc1ccc(-c2ccccc2)cc1	142 to 145
Nc1ccc(C(=O)c2cnc(NC3CCCCC3)s2)cc1[N+](=O)[O-]	245 to 250
CONC(=O)NC1(c2ccc(C(C)C)cc2OC)C(=O)c2ccccc2C1=O	153 to 155
COC(=O)[C@@H]1CCN1S(=O)(=O)c1ccc(Cl)c(COc2cccc3c(-n4ccnc4)cc(C)nc23)c1Cl	80
O=C(CP(=S)(c1ccccc1)c1ccccc1)c1ccccc1	83 to 84
Cc1cccc2c1ncn2Cc1oc2ccc(Br)cc2c(=O)c1-c1ccccc1	176 to 179
CCN(C=O)Cc1ccc(NCCN(CC)CC)c2c(=O)c3ccccc3sc12	75 to 77
CCc1ccc2c3c(c(=O)oc2c1)CNCC3	80 to 85
Cc1[nH]c(C(=O)NCC2CCCCC2)c(C)c1-c1nc2ccc(C(=O)c3ccccc3)cc2[nH]1	254 to 255
COc1cc(Nc2c(C#N)cnc3cc(-c4ccc(C=O)cc4)ccc23)c(Cl)cc1Cl	248 to 251
CCOC(=O)c1cn(-c2ccc(F)cc2F)c2nc(OC)c(F)cc2c1=O	190 to 192
Nc1nc(-c2ccco2)c(C(=O)c2ccccn2)s1	206 to 207

Structure (SMILES)	melting point [°C]
O=C(O)CC1Cc2ccc(O)cc2OC1=O (stereo not given)	174 to 175
COc1ccc(N2CCC(c3c(N)nc(N)[nH]c3=O)CC2)cc1	308
CCCCc1oc2ccccc2c1C(=O)c1ccc(NS(=O)(=O)c2cccnc2)cc1	130
CC(=O)c1nn(-c2c(Cl)cc(C(F)(F)F)cc2Cl)c(N)c1S(C)=O (stereo not given)	166
CC(=O)SCC1(CSC(C)=O)C(=O)N2CCCC(C(=O)OC(C)(C)C)N2C1=O (stereo not given)	85 to 86
CC1(C)CC(=O)c2c(OC3CCC3)sc(-c3cc[nH]n3)c2C1	202 to 204
Clc1cc(Cl)cc(-c2n[nH]cc2I)c1	170
CCOC(=O)Nc1ccccc1C(=O)OCC	< 40
CCCCCCCCCCCCNC(=O)c1cc(Br)c(OCCNC(=O)OC)c(-c2cccc(C(F)(F)F)c2)c1	79.6 to 80.5
CC(C)(C)OC(=O)NC1CCc2ccc(C=O)cc2C1 (stereo not given)	98 to 101
CC(=Cc1ccc(-c2ccc(Cl)cc2)cc1)[N+](=O)[O-]	114
Nc1cc(Cl)cc(Cl)c1C(=O)NCc1ccc(F)cc1	89 to 94
COC(=O)C(Cc1ccccc1)NC(=O)c1cc2cc(Cl)ccc2[nH]1 (stereo not given)	156 to 157
Cc1nn(-c2cccnc2)c(-c2cccc(Cl)c2)c1CC(=O)O	163
NC(=O)Cc1ccc([N+](=O)[O-])c(C(=O)c2ccc(Cl)cc2)c1	212
O=C(O)c1ccc(N2CCCCC2)c(NC(=O)C(CS)Cc2ccccc2)c1 (stereo not given)	142 to 146
O=C(O)C1(c2ccccc2)CCN(Cc2ccccc2)CC1	286
NCc1ccn(C2=CC3=C(CC2)CCc2[nH]c(=O)c(=O)n(OCC(=O)O)c23)c1	> 300
Cc1cc(C#N)sc1Br	40 to 42
COC(=O)c1cc(C(=O)NCC(C)C)c2cc(Cc3ccc(F)cc3)cnc2c1O	178 to 179
Cc1c(C(=O)O)cccc1C(=O)c1ccc(Cl)cc1	205
CN1C(=O)[C@H](NC(=O)CCCc2ccccc2)N=C(c2ccccc2)c2ccccc21	65 to 74

Structure (SMILES)	melting point [°C]
CCCCCC(CC(=O)Nc1cc(C(N)=O)ccc1C(C)(C)C)c1ccc(OCCCNS(C)(=O)=O)cc1OC (stereo not given)	77 to 79
CCOC(=O)C(CC)C(=O)Nc1ccc(Br)cc1C (stereo not given)	98 to 100
CSC(=N)Nc1c(C)cccc1Cl	183 to 184
Cc1ccc(-c2cc(CN)c(=O)n(CC(C)C)n2)cc1	74.9 to 77.9
CCOC(=O)c1c(N)sc(-c2ccc(OC)cc2)c1C	79 to 80
N=C(Nc1cc(Cl)cc(NC(=O)/C=C/c2ccccc2C(F)(F)F)c1)c1ccccc1F	209 to 210
Cn1c(=O)c(C#N)c(Cl)c2cc(F)ccc21	258
Cc1oc(-c2ccco2)nc1COc1ccc(Cc2nc(-c3ccccc3)c(CCC(=O)O)o2)cc1	74 to 76
Cn1c2ccc(Br)cc2c2cc(C(=O)N3CCOCC3)sc21	184
CCOCc1nc2c(N)nc3ccccc3c2n1NC(CC)CC	125 to 128
Nc1c(Cl)cc(I)cc1Cl	100 to 102
CCCc1nccn1-c1ncnc2nc[nH]c12	242 to 244
COc1cccc([C@H]2O[C@H](CC(=O)Nc3ccc4oc(C(=O)O)c(OC(C)C)c4c3)C(=O)N(CC(C)(C)CO)c3ccc(Cl)cc32)c1OC	174 to 175
O=c1cc(-n2ccnc2)c2cc(C(c3ccc(Cl)cc3)n3ccnc3)ccc2[nH]1 (stereo not given)	242
CS(=O)(=O)c1ccc(Oc2ccc(Cc3ccccc3)cc2)cc1	109 to 110
NC(=NO)C1CCN(c2ccc3c(NC(=O)CC4CCCCC4)c(Cl)ccc3n2)CC1	246 to 247
CCCCCS(=O)(=O)NC(=O)/C(C)=C/c1ccc(OCCOC)cc1Oc1ncc(C(F)(F)F)cc1Cl	108 to 111
COc1ccc(C2SC(=O)NC2=O)cc1C(=O)NCc1ccc(C(F)(F)F)cc1 (stereo not given)	168 to 169
CCCCCS(=O)(=O)NCC(=O)O	87 to 90
C[C@H]1[C@H](N2C(=O)c3ccccc3C2=O)C(=O)N1O (relative stereo)	94 to 96
Oc1cc(Cl)c2nc(-c3ccc(O)c(F)c3)cc(Br)c2c1	184 to 186

Further lines, results first:

melting point [°C]	Structure (SMILES)
157 to 160	CN(C)C=C1CCCc2cc(N3C[C@H](CNC(=O)OC(C)(C)C)OC3=O)ccc2C1=O
211	CC(=O)NC[C@H]1CN(c2ccc(N3C[C@H]4CN(C(=O)c5cc6ccccc6[nH]5)C[C@H]4C3)c(F)c2)C(=O)O1
147 to 149	CCOC1CC2(C)C(CCC3C4CCC(C(C)=O)C4(C)CC(NC(=O)OCC(Cl)(Cl)Cl)C32)CC1OC(=O)OCC(Cl)(Cl)Cl (stereo not given)
179 to 182	CCCCC(=O)Nc1ccc(C(F)(F)F)c(-n2nc(CCCC)n(Cc3ccc(-c4ccccc4S(=O)(=O)NC(=O)OC(C)(C)C)cc3F)c2=O)c1
183 to 185	CCC(=O)c1ccc2c(c1)C1(CC1)C(=O)N2
96.8 to 98.8	CC(=O)NC[C@H]1CN(c2ccc(-n3nccc3-c3ccc(Br)cc3)c(F)c2)C(=O)O1
88 to 89	NC(c1cc(-c2ccc(F)cc2)c(-c2ccc(F)cc2)[nH]1)(C(F)(F)F)C(F)(F)F
195 to 196	O=C(Nc1ccccc1)c1cc(NC(=S)Nc2cc(Cl)cc(Cl)c2)ccc1F
95 to 105	Nc1ccc(C(=O)N2CCOCC2)cc1OCc1ccc(-c2ccccc2-c2nnnn2C(c2ccccc2)(c2ccccc2)c2ccccc2)cc1
135 to 136	O=C(O)C(=O)c1ccc(S(=O)(=O)CCOc2ccc3ccccc3c2)cc1
198 to 200	Cc1cc(N)ncc1I
118	CCOC(=O)Nc1cccc(N2CCN(CCC3CCN(CC(C)=O)CC3)CC2)c1
253 to 259	Cc1cccc(C)c1Oc1cc2c(cc1Cl)C=C(C(=O)O)C(C(F)(F)F)O2 (stereo not given)
105	CCN(CC)C(=O)COc1cc2ccccc2c(-c2ccccc2)n1
150 to 151	CC(C)(C)OC(=O)n1cnc(CN2C[C@@H](Cc3ccccc3)N(S(C)(=O)=O)Cc3cc(C#N)ccc32)c1
98 to 100	Cc1nc(-c2ccc(C(F)(F)F)cc2)oc1COc1ccc(CCC(=O)O)cc1
126 to 128	CCCOc1ccc(S(=O)(=O)N2CCN(CCOC(=O)CC)CC2)cc1-c1nc2c(CCC)cn(CC)c2c(=O)[nH]1
> 250	CC(C)(CO)CNS(=O)(=O)c1ccc(NC=C2C(=O)Nc3ccc4ncsc4c32)cc1
190 to 197	Cn1c(=O)c(-c2ccccc2Cl)cc2cnc(NC3C4CN(C(=O)Nc5ccc(CC(=O)O)cc5)CC43)nc21 (stereo not given)
128	COc1ccc(CCN2C=CC=C3C2=Nc2cc(C)ccc2S(=O)(=O)N3C)cc1
94 to 95	COc1cccc(C(CNC(=O)Cc2c(Cl)cncc2Cl)C(C)C)c1 (stereo not given)
120	N#Cc1c(CBr)c(C#N)c(CBr)c(C#N)c1CBr
198 to 199	COc1ccc(C(=O)Nc2ccccc2)cc1Nc1cc(C)cc(C)c1
95 to 96	CCOC(=O)c1ccc(-c2nn(Cc3ccccc3)c3ccccc23)cc1
158 to 159	Cc1nnc(-c2ccc3occ(-c4ccc(SCc5ccccc5)cc4)c3c2)o1
125 to 130	COc1cc(C(=O)NS(=O)(=O)c2ccccc2)ccc1Cc1cn(C)c2ccc(NC(=O)OC3CCCC3)cc12
184 to 187	COc1ccc(Oc2c(Cl)cc(-n3ncc(=O)[nH]c3=O)cc2Cl)cc1C=O
149 to 150	Nc1ncnc(OCc2ccccc2)c1[N+](=O)[O-]
130	COc1ccc(CS[C@@H]2C[C@@H](C(=O)NN)N(S(=O)(=O)c3ccc4ccccc4c3)C2)cc1
154 to 155	CCCCn1c(C)c(C)cc(NC(=O)Nc2ccccc2Br)c1=O
